Experimental data reported in patent US12157727B2, “Substituted tetrahydroquinolin compounds as indoleamine 2,3-dioxygenase (IDO) inhibitors” (Merck Sharp & Dohme LLC, priority 2019, dated 2024).

Each compound was assayed against T1, IDO1 (Homo sapiens, UniProt P14902) (assay: IDO1 Human Whole Blood Assay). Details: LPS and IFNγ 100 ng/mL, overnight (18 h), kynurenine by LC/MS/MS.
T1 construct: Human whole blood was drawn in sodium heparin coated tubes from healthy internal donors; from tissue; host or cells: human whole blood from healthy donors, stimulated with LPS and IFNγ
T1 sequence (P14902 whole entry): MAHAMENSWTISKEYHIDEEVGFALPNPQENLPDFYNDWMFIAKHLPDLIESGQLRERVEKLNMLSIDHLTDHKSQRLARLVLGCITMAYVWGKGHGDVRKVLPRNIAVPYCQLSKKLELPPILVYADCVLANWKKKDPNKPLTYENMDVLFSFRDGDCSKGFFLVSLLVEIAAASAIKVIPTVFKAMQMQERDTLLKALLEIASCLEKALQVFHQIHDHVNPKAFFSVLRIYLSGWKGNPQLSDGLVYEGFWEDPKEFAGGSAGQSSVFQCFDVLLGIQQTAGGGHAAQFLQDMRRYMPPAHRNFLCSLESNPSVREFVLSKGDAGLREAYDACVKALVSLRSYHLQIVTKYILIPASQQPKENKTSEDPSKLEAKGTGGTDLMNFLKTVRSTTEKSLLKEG
Format: cell-based
Method: Compounds to be tested were serially diluted in ten 3-fold steps in DMSO starting from 10 mM. 3 μL of compound dilutions or DMSO alone were then dispensed from the dilution plate into a polypropylene 96-well assay plate containing 97 μL of RPMI using an Echo 555 acoustic liquid handler (Labcyte). LPS and IFNγ was prepared in RPMI to a 10× of final conc. (1000 ng/mL), final concentration is 100 ng/mL.
Human whole blood was drawn in sodium heparin coated tubes from healthy internal donors. 240 μL of blood was transferred to each of the wells of a v-bottom 96 well plate. 30 μL of compound was transferred from intermediate dilution plate, and incubated for 15 min. 30 μL from stimulants was then transferred to blood and mixed thoroughly. Plate was covered with breathable membrane and incubated at 37° C. for overnight (18 h).
On day 2 isotope labeled standard of kynurenine and tryptophan was made in water at 10×concentration and 30 μL was added to the blood at 3 μM final concentration. The assay plates were centrifuged at 300×G for 10 min with no brake to separate plasma from red blood cells. 60 μL of plasma samples was removed without disturbing red blood cells. Plasma was diluted with RPMI in 1:1 ratio and proteins were precipitated out with two volumes of Acetonitrile. The plates were centrifuged at 4000×G for 60 min. 20 μL of supernatant was carefully transferred to a 384 well plate contain 40 μL of 0.1% formic acid in water and analyzed by LC/MS/MS.
LC/MS/MS analyses were performed using Thermo Fisher's LX4-TSQ Quantum Ultra system. This system consists of four Agilent binary high-performance liquid chromatography (HPLC) pumps and a TSQ Quantum Ultra triple quadrupole MS/MS instrument. For each sample, 5 μL were injected onto an Atlantis T3 column (2.1 mm×150 mm, 3 μm particle size) from Waters. The mobile phase gradient pumped at 0.8 mL/min was used to elute the analytes from the column at 25° C. The elution started at 0% B increasing linearly to 25% B at 6.5 min, holding at 25% for 1 min, re-equilibrating to 10 min. Mobile phase A consisted of 0.1% formic acid in water. Mobile phase B consisted of 0.1% of formic acid in acetonitrile. Data was acquired in positive mode using a HESI interface. The operational parameters for the TSQ Quantum Ultra instrument were a spray voltage of 4000 V, capillary temperature of 380° C., vaporizer temperature 400° C., shealth gas 60 arbitrary units, Aux gas 20 arbitrary units, tube lens 85 and collision gas 1.2 mTorr. SRM chromatograms of kynurenine (Q1: 209.2>Q3:94.0) and internal standard (Q1: 215.3>Q3:98.2) were collected for 90 sec. The peak area was integrated by Xcalibur Quan software. The ratios between the kynurenine generated in the reaction and 2D6-Kynurenine spiked-in internal standard were used to generate percentage inhibition and IC50 values. Compounds were titrated and IC50' s were calculated by 4 parameter sigmoidal curve fitting formula.

SMILES	IC50 [µM]
O=C(C1CC1)N1CCCc2cc(C3(c4nc5ncc(C(F)(F)F)cc5[nH]4)CCC3)ccc21 [Example 1, Cyclopropyl(6-(1-(6-(trifluoromethyl)-1H-imidazo[4,5-b]pyridin-2-yl)cyclobutyl)-3A-dihydroquinolin-1(2H)-yl)methanone]	0.186
O=C(C1CC1)N1CCCc2cc(C3(c4nc5ccc(Cl)cc5[nH]4)CCC3)ccc21 [Example 2, {6-[1-(6-chloro-1H-benzimidazol-2-yl)cyclobutyl]-3,4-dihydroquinolin-1(2H)-yl}(cyclopropyl) methanone]	0.132
O=C([C@H]1CCCO1)N1CCCc2cc(C3(c4nc5ncc(C(F)(F)F)cc5[nH]4)CCC3)ccc21 [Example 3, [(2R)-oxolan-2-yl][6-{1-[6-(trifluoromethyl)-1H-imidazo[4,5-b]pyridin-2-yl]cyclobutyl}-3,4-dihydroquinolin-1(2H)-yl]methanone]	0.0307
N#Cc1ccc2nc(C3(c4ccc5c(c4)CCCN5C(=O)C4CC4)CCC3)[nH]c2c1 [Example 4, 2-{1-[1-(cyclopropane-carbonyl)-1,2,3,4-tetrahydroquinolin-6-yl]cyclobutyl}-1H-benzimidazole-6-carbonitrile]	0.027
COC(=O)N1CCCc2cc(C3(c4nc5ncc(C(F)(F)F)cc5[nH]4)CCC3)ccc21 [Example 5, Methyl 6-(1-(6-(trifluoromethyl)-1H-imidazo[4,5-b]pyridin-2-yl)cyclobutyl)-3,4-dihydroquinoline-1(2H)-carboxylate]	0.229
O=C(C1CC1)N1CCCc2nc(C3(c4nc5cc(C(F)(F)F)cnc5[nH]4)CCC3)ccc21 [Example 13, Cyclopropyl(6-(1-(6-(trifluoromethyl)-3H-imidazo[4,5-b]pyridin-2-yl)cyclobutyl)-3,4-dihydro-1,5-naphthyridin-1(2H),-yl)methanone]	0.0563
O=C([C@@H]1CCCCO1)N1CCCc2nc(C3(c4nc5ncc(C(F)(F)F)cc5[nH]4)CCC3)ccc21 [Example 15, (S)-(tetrahydro-2H-pyran-2-yl)(6-(1-(6-(trifluoromethyl)-1H-imidazo[4,5-b]pyridin-2-yl)cyclobutyl)-3,4-dihydro-1,5-naphthyridin-1(2H)-yl)methanone]	0.0261
O=C([C@H]1CCCCO1)N1CCCc2nc(C3(c4nc5ncc(C(F)(F)F)cc5[nH]4)CCC3)ccc21 [Example 16, (R)-(tetrahydro-2H-pyran-2-yl)(6-(1-(6-(trifluoromethyl)-1H-imidazo[4,5-b]pyridin-2-yl)cyclobutyl)-3,4-dihydro-1,5-naphthyridin-1(2H)-yl)methanone]	0.0141
O=C(c1ccccc1Cl)N1CCCc2nc(C3(c4nc5ncc(C(F)(F)F)cc5[nH]4)CCC3)ccc21 [Example 17, (2-chlorophenyl)[6-{1-[6-(trifluoromethyl)-1H-imidazo[4,5-b]pyridin-2-yl]cyclobutyl}-3,4-dihydro-1,5-naphthyridin-1(2H)-yl]methanone]	0.0478
COC(=O)N1CCCc2nc(C3(c4nc5cc(C(F)(F)F)cnc5[nH]4)CCC3)ccc21 [Example 18, methyl 6-(1-(6-(trifluoromethyl)-3H-imidazo[4,5-b]pyridin-2-yl)cyclobutyl)-3,4-dihydro-1,5-naphthyridine-1(2H),-carboxylate]	0.494
CCOC(=O)N1CCCc2nc(C3(c4nc5cc(C(F)(F)F)cnc5[nH]4)CCC3)ccc21 [Example 19, ethyl 6-{1-[6-(trifluoromethyl)-3H-imidazo[4,5-b]pyridin-2-yl]cyclobutyl}-3,4-dihydro-1,5-naphthyridine-1(2H)-carboxylate]	0.274
N#Cc1ccc2nc(C3(c4ccc5c(n4)CCCN5C(=O)OC4CC4)CCC3)[nH]c2c1 [Example 20, cyclopropyl 6-[1-(6-cyano-1H-benzimidazol-2-yl)cyclobutyl]-3,4-dihydro-1,5-naphthyridine-1(2H)-carboxylate]	0.035
O=C(OC1CC1)N1CCCc2nc(C3(c4nc5ccc(Cl)cc5[nH]4)CCC3)ccc21 [Example 21, cyclopropyl 6-[1-(6-chloro-1H-benzimidazol-2-yl)cyclobutyl]-3,4-dihydro-1,5-naphthyridine-1(2H)-carboxylate]	0.0441
O=C(OC1CC1)N1CCCc2nc(C3(c4nc5ncc(Cl)cc5[nH]4)CCC3)ccc21 [Example 22, cyclopropyl 6-[1-(6-chloro-1H-imidazo[4,5-b]pyridin-2-yl)cyclobutyl]-3,4-dihydro-1,5-naphthyridine-1(2H)-carboxylate]	0.0605
O=C(OC1CC1)N1CCCc2nc(C3(c4nc5ncc(C(F)(F)F)cc5[nH]4)CCC3)ccc21 [Example 23, cyclopropyl 6-{1-[6-(trifluoromethyl)-1H-imidazo[4,5-b]pyridin-2-yl]cyclobutyl}-3,4-dihydro-1,5-naphthyridine-1(2H)-carboxylate]	0.0642
N#Cc1cnc2nc(C3(c4ccc5c(n4)CCCN5C(=O)OC4CC4)CCC3)[nH]c2c1 [Example 24, cyclopropyl 6-[1-(6-cyano-1H-imidazo[4,5-b]pyridin-2-yl)cyclobutyl]-3,4-dihydro-1,5-naphthyridine-1(2H)-carboxylate]	0.121
CC(c1ccc2c(n1)CCCN2C(=O)OC1CC1)c1nc2ccc(Cl)cc2[nH]1 (stereo not drawn) [Example 25, cyclopropyl 6-(1-(6-chloro-1H-benzo[d]imidazol-2-yl)ethyl)-3,4-dihydro-1,5-naphthyridine-1(2H)-carboxylate]	0.117
C[C@@H](c1ccc2c(n1)CCCN2C(=O)OC1CC1)c1nc2ccc(Cl)cc2[nH]1 [Example 26, cyclopropyl (S)-6-(1-(6-chloro-1H-benzo[d]imidazol-2-yl)ethyl)-3,4-dihydro-1,5-naphthyridine-1(2H)-carboxylate]	0.055
C[C@H](c1ccc2c(n1)CCCN2C(=O)OC1CC1)c1nc2ccc(Cl)cc2[nH]1 [Example 27, cyclopropyl (R)-6-(1-(6-chloro-1H-benzo[d]imidazol-2-yl)ethyl)-3,4-dihydro-1,5-naphthyridine-1(2H)-carboxylate]	0.0568
Cc1nccc(N2CCCc3nc(C4(c5nc6cc(C(F)(F)F)cnc6[nH]5)CCC4)ccc32)n1 [Example 30, 1-(2-methylpyrimidin-4-yl)-6-(1-(6-(trifluoromethyl)-3H-imidazo[4,5-b]pyridin-2-vyl)cyclobutyl)-1,2,3,4-tetrahydro-1,5-naphthyridine]	0.355
FC(F)(F)c1nccc(N2CCCc3nc(C4(c5nc6cc(Cl)ccc6[nH]5)CCC4)ccc32)n1 [Example 33, 6-[1-(5-chloro-1H-benzimidazol-2-yl)cyclobutyl]-1-[2-(trifluoromethyl)pyrimidin-4-yl]-1,2,3,4-tetrahydro-1,5-naphthyridine]	0.0833
Cc1nccc(N2CCCc3nc(C4(c5nc6cc(Cl)ccc6[nH]5)CCC4)ccc32)n1 [Example 34, 6-[1-(6-chloro-1H-benzimidazol-2-yl)cyclobutyl]-1-(2-methylpyrimidin-4-yl)-1,2,3,4-tetrahydro-1,5-naphthyridine]	0.14
FC(F)(F)c1nccc(N2CCCc3nc(C4(c5nc6cc(Cl)cnc6[nH]5)CCC4)ccc32)n1 [Example 35, 6-[1-(6-chloro-3H-imidazo[4,5-b]pyridin-2-yl)cyclobutyl]-1-[2-(trifluoromethyl)pyrimidin-4-yl]-1,2,3,4-tetrahydro-1,5-naphthyridine]	0.0539
N#Cc1ccc2nc(C3(c4ccc5c(n4)CCCN5c4ccnc(C(F)(F)F)n4)CC4(CC4)C3)[nH]c2c1 [Example 41, 2-(5-(5-(2-(trifluoromethyl)pyrimidin-4-yl)-5,6,7,8-tetrahydro-1,5-naphthyridin-2-yl)spiro[2,3]hexan-5-yl)-1H-benzo[d]imidazole-6-carbonitrile]	0.0713
